# Laboratory results as given in article PMC4279137 (Pharmaceutics, 2014).
# Read-outs that look alike come from different tables or passages of the source.
# How the values were obtained:
# SLCO2B1 = experiment: Induction assay, mRNA by real-time RT-PCR in LS180 cells: SLCO2B1; format: cell-based, human; details: four days, at higher concentrations
# Protocol: (§1) The human colon adenocarcinoma cell line LS180 (available at ATCC, Manassas, VA, USA) was used for induction experiments as a surrogate for the intestine being a major site of drug interactions and being an ideal model for investigating PXR and AhR mediated induction. Cells were cultured as described previously. For the induction experiments, LS180 cells were seeded in 75 cm^2 culturing flasks and incubated for three days. […] Rifampicin (20 µM) served as a positive control and culture medium with 0.02% DMSO as a negative control. For induction of CYP1A1 and CYP1A2, 5 nM TCDD was used as a positive control. All incubation solutions were adjusted to 0.02% DMSO. […]
# (§2) RNA was isolated using the RNeasy Mini-Kit and cDNA was synthesised with the RevertAid™ H Minus First Strand cDNA Synthesis Kit according to the manufacturer’s instructions. mRNA expression was quantified by real-time RT-PCR with the LightCycler® 480 (Roche Applied Science, Mannheim, Germany) as described previously. […] Data were evaluated by calibrator-normalised relative quantification with efficiency correction using the LightCycler® 480 software version 1.5 (Roche Applied Science, Mannheim, Germany). The software calculated the relative amount of the target gene and the reference gene (G6PDH) based on the crossing points. Results were expressed as the target/reference ratio divided by the target/reference ratio of the calibrator. […]
# CYP2D6 = target: T1, CYP2D6 (Homo sapiens, UniProt P10635); experiment: CYP2D6/AMMC High Throughput Inhibitor Screening Kit; format: biochemical; details: tested up to 20 µM
# T1 construct: purchased Becton Dickinson Biosciences, Heidelberg, Germany
# T1 sequence (P10635 whole entry): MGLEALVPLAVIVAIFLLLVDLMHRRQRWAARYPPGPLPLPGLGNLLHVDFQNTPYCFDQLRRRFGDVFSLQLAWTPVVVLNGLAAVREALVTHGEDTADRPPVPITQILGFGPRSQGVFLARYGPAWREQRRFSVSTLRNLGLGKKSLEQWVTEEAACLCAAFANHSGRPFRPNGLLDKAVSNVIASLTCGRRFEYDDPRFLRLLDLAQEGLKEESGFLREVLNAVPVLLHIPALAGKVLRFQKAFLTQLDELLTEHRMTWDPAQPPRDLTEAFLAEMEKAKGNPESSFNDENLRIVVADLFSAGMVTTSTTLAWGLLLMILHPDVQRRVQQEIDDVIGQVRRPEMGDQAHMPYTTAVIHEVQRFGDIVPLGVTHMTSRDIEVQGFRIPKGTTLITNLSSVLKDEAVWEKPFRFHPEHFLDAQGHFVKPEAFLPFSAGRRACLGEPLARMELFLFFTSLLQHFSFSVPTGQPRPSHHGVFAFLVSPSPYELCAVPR
# Protocol: (§3) Inhibition studies were performed with the CYP2D6/AMMC, the CYP2C19/CEC, and the CYP3A4/BFC High Throughput Inhibitor Screening Kit (Becton Dickinson Biosciences, Heidelberg, Germany) according to the manufacturer’s instructions. The Screening Kits contain the respective recombinant CYP and fluorogenic substrates, which are blocked dyes yielding minimal fluorescence signal until cleaved by the enzyme. […] Eight concentrations (9 nM–20 µM) were tested and the experiment was conducted in triplicate.
# UGT1A3 = experiment: Induction assay, mRNA by real-time RT-PCR in LS180 cells: UGT1A3; format: cell-based, human; details: four days, at higher concentrations
# Protocol: as §1, §2
# [1] = Stock solution in DMSO (highest possible solution); format: physicochemical
# OATP1B3 [2] = target: T2, OATP1B3 (Homo sapiens, UniProt Q9NPD5); experiment: OATP inhibition assay (8-FcA flow cytometry uptake assay) in HEK-OATP1B3 cells; format: cell-based; details: 8-fluorescein-cAMP uptake
# T2 construct: expressed in transfected cells; host or cells: HEK293 (HEK-OATP1B3)
# T2 sequence (Q9NPD5 whole entry): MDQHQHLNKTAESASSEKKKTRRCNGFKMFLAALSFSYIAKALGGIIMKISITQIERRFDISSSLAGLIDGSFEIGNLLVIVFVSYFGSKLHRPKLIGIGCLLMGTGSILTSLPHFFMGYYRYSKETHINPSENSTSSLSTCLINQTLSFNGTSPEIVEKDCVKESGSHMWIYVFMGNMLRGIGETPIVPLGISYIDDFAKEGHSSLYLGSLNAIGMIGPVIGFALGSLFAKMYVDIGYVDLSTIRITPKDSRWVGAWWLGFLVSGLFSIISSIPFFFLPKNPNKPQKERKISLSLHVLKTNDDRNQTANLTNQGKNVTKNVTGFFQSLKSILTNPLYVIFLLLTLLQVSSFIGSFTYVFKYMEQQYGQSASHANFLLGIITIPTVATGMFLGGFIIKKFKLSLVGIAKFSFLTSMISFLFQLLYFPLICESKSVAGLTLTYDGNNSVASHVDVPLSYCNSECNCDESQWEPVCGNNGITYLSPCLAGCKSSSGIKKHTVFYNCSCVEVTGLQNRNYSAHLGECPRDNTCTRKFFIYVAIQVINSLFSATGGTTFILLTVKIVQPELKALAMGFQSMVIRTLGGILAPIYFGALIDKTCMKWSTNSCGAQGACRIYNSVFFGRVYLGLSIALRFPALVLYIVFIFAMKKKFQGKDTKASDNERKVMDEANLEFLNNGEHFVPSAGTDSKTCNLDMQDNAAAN
# Protocol: (§4) For assessing human organic antion transporting polypeptides (OATPs = solute carriers of organic anions (SLCOs)) inhibition, the human embryonic kidney cell line HEK293 stably transfected with OATP1B1 (HEK-OATP1B1), OATP1B3 (HEK-OATP1B3), or the empty control vector (HEK293-VC G418) were used. Cells were cultured under standard cell culture conditions with DMEM supplemented with 10% FCS, 2 mM glutamine, 100 U/mL penicillin, 100 µg/mL streptomycin sulphate, and 800 µg/mL G418. Cells were kindly provided by Dr. D. Keppler (German Cancer Research Centre, Heidelberg, Germany).
# (§5) Inhibition of OATP1B1 and OATP1B3 was analysed by flow cytometric uptake of the fluorescent 8-FcA as described previously using HEK-OATP1B1, OATP1B3, and HEK293-VC G418 (as a control). […] Subsequently, cells were washed once with 1 mL ice-cold incubation medium and resuspended in 500 µL incubation medium and kept on ice until flow cytometry. Intracellular fluorescence was analysed in a Becton Dickinson LSRII flow cytometer (Becton Dickinson, Heidelberg, Germany) with a solid state coherent sapphire blue laser and a 530 bandpass filter for 8-FcA.
# (§6) In each sample 30,000 cells were counted. Cell debris was eliminated by gating the viable cells in the forward versus side scatter. […] Each experiment was performed at least in triplicate.
# ABCC2 = experiment: Induction assay, mRNA by real-time RT-PCR in LS180 cells: ABCC2; format: cell-based, human; details: four days, at higher concentrations
# Protocol: as §1, §2
# OATP1B1 [3] = target: T3, OATP1B1 (Homo sapiens, UniProt Q9Y6L6); experiment: OATP inhibition assay (8-FcA flow cytometry uptake assay) in HEK-OATP1B1 cells; format: cell-based; details: 8-fluorescein-cAMP uptake
# T3 construct: expressed in transfected cells; host or cells: HEK293 (HEK-OATP1B1)
# T3 sequence (Q9Y6L6 whole entry): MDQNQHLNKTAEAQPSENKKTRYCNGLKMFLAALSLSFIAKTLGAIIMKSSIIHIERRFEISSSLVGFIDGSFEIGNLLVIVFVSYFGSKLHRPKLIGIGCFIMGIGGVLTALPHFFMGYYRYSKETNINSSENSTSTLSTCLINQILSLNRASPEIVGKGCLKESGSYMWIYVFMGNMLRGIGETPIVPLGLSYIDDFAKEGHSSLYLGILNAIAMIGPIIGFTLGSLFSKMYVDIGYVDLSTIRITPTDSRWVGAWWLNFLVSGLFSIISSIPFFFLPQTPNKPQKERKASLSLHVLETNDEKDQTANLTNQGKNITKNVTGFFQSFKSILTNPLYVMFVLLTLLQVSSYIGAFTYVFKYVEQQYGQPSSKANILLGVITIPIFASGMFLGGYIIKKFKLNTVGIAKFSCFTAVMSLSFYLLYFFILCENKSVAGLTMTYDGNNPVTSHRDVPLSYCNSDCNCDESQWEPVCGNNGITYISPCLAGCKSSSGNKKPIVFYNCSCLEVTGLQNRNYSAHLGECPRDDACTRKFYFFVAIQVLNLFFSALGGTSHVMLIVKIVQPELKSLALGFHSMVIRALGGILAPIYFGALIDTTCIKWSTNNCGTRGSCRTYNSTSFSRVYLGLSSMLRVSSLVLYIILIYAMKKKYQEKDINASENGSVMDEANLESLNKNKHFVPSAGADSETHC
# Protocol: as §4, §5, §6
# ABCB1 = experiment: Induction assay, mRNA by real-time RT-PCR in LS180 cells: ABCB1; format: cell-based, human; details: four days, at higher concentrations
# Protocol: as §1, §2
# CYP1A2 = experiment: Induction assay, mRNA by real-time RT-PCR in LS180 cells: CYP1A2; format: cell-based, human
# Protocol: as §1, §2
# LS180 cells = experiment: Growth inhibition assay (crystal violet staining) in LS180 cells; format: cell-based; details: Homo sapiens, 48 h, read-out: IC20 for proliferation inhibition
# Protocol: The human colon adenocarcinoma cell line LS180 (available at ATCC, Manassas, VA, USA) was used for induction experiments as a surrogate for the intestine being a major site of drug interactions and being an ideal model for investigating pregnane X receptor (PXR) and aryl hydrocarbon receptor (AhR) mediated induction. Cells were cultured under standard cell culture conditions with Dulbecco’s Modified Eagle’s Medium (DMEM) supplemented with 10% fetal calf serum, 2 mM glutamine, 100 U/mL penicillin, 100 µg/mL streptomycin sulphate, and 0.1 mM nonessential amino acids.
# Growth inhibition assays in LS180 cells were conducted to determine suitable maximum concentrations for the induction assay without profound antiproliferative effects. Proliferation was quantified by crystal violet staining as described previously. […] Absorption was measured at 555 nm excitation. Proliferation was expressed as proliferation index, which was calculated as the absorption intensity of the test well in percentage points relative to zero proliferation (absorption of wells containing only medium set to 0%) and native proliferation (absorption intensity of untreated control cells set to 100%). […] Concentration-response curves and IC20 values were calculated by GraphPad Prism version 5.02 (GraphPad Software Inc., La Jolla, CA, USA) according to a sigmoid Emax model.
# CYP3A4 [4] = experiment: Induction assay, mRNA by real-time RT-PCR in LS180 cells: CYP3A4; format: cell-based, human; details: 0.1-5 µM, four days
# Protocol: as §1, §2
# CYP3A4 [5] = target: CYP3A4 (Homo sapiens, UniProt P08684); experiment: in vitro
# Sequence of CYP3A4 (Homo sapiens, UniProt P08684) (P08684 whole entry): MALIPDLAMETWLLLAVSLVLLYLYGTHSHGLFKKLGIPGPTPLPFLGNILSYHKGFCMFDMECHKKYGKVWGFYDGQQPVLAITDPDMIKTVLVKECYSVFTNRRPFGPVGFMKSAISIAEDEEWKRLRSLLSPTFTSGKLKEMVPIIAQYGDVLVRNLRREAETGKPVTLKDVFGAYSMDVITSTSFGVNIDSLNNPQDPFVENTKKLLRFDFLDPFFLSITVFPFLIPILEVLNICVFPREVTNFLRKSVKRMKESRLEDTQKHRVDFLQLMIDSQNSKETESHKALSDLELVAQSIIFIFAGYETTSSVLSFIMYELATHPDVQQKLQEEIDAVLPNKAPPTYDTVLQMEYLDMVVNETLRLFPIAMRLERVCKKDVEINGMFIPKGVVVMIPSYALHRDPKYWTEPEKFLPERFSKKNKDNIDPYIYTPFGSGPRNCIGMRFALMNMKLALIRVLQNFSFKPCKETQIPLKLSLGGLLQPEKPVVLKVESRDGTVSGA
# Protocol: as §3
# P-gp = experiment: Western blot analysis of P-gp expression in LS180 cells; format: cell-based, human; details: four days
# Protocol: The human colon adenocarcinoma cell line LS180 (available at ATCC, Manassas, VA, USA) was used for induction experiments as a surrogate for the intestine being a major site of drug interactions and being an ideal model for investigating PXR and AhR mediated induction. Cells were cultured as described previously. For the induction experiments, LS180 cells were seeded in 75 cm^2 culturing flasks and incubated for three days. […] Rifampicin (20 µM) served as a positive control and culture medium with 0.02% DMSO as a negative control. For induction of CYP1A1 and CYP1A2, 5 nM TCDD was used as a positive control. All incubation solutions were adjusted to 0.02% DMSO. After harvesting, cells were splitted for RNA and protein extraction.
# [6] = Growth inhibition assay in MDCKII-MDR1 cells; format: cell-based, canine; details: dog
# MDCKII = experiment: Growth inhibition assay in MDCKII cells; format: cell-based, canine; details: Canis lupus familiaris, MDCK-II; MDCKII parental cells
# UGT2B7 = experiment: Induction assay, mRNA by real-time RT-PCR in LS180 cells: UGT2B7; format: cell-based, human; details: four days, at higher concentrations
# Protocol: as §1, §2
# ABCC3 = experiment: Induction assay, mRNA by real-time RT-PCR in LS180 cells: ABCC3; format: cell-based, human; details: 0.1-5 µM, four days
# Protocol: as §1, §2
# ABCG2 = experiment: Induction assay, mRNA by real-time RT-PCR in LS180 cells: ABCG2; format: cell-based, human; details: 0.1-5 µM, four days
# Protocol: as §1, §2
# AhR = target: T4, AhR (Homo sapiens, UniProt P35869); experiment: AhR reporter gene assay in AZ-AhR cells; format: cell-based; details: 24 h, luciferase reporter, read-out: EC50 activation of AhR activity
# T4 construct: endogenous in cells; host or cells: AZ-AhR (HepG2)
# T4 sequence (P35869 11-848): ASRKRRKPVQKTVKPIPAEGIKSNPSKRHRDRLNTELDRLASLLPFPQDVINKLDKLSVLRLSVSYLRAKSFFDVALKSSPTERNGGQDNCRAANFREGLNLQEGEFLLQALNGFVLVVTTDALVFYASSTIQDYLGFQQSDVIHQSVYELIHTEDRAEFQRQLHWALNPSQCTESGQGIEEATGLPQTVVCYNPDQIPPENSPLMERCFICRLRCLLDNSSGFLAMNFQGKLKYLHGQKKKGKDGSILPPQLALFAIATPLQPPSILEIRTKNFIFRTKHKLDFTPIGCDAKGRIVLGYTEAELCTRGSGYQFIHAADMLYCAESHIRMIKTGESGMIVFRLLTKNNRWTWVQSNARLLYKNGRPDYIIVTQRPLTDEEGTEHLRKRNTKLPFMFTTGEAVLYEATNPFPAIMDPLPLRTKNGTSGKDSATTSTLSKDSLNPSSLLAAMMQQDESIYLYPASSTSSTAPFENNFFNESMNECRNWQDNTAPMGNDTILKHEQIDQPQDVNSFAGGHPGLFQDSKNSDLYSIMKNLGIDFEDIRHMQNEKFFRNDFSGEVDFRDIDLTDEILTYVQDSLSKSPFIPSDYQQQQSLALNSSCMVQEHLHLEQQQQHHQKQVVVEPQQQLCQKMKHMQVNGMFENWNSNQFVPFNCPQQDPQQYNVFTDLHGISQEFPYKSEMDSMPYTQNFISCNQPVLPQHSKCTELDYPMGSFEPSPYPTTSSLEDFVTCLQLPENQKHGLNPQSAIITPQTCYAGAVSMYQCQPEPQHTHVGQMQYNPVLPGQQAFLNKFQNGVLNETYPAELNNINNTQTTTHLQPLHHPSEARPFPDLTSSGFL
# Protocol: Human hepatoma HepG2 cells stably transfected with a construct containing several AhR binding sites upstream of a luciferase reporter gene were used for the AhR reporter gene assays as described previously.
# In total, 60,000 AZ-AhR cells were seeded into each well of 96-well plates with clear bottom and clear lid for luminometry. […] The assay was performed with the Steady-Glo™ Luciferase Assay System according to the manufacturer’s instructions. Drug-induced increases of AhR receptor activity were normalised to activity of non-drug treated controls set to 1 (=100%).
# CYP2C19 [7] = experiment: Induction assay, mRNA by real-time RT-PCR in LS180 cells: CYP2C19; format: cell-based, human; details: 0.1-5 µM, four days
# Protocol: as §1, §2
# ABCC1 = experiment: Induction assay, mRNA by real-time RT-PCR in LS180 cells: ABCC1; format: cell-based, human; details: 0.1-5 µM, four days
# Protocol: as §1, §2
# CYP1A1 = experiment: Induction assay, mRNA by real-time RT-PCR in LS180 cells: CYP1A1; format: cell-based, human
# Protocol: as §1, §2
# CYP2C19 [8] = target: T5, CYP2C19 (Homo sapiens, UniProt P33261); experiment: CYP2C19/CEC High Throughput Inhibitor Screening Kit; format: biochemical
# T5 construct: purchased Becton Dickinson Biosciences, Heidelberg, Germany
# T5 sequence (P33261 whole entry): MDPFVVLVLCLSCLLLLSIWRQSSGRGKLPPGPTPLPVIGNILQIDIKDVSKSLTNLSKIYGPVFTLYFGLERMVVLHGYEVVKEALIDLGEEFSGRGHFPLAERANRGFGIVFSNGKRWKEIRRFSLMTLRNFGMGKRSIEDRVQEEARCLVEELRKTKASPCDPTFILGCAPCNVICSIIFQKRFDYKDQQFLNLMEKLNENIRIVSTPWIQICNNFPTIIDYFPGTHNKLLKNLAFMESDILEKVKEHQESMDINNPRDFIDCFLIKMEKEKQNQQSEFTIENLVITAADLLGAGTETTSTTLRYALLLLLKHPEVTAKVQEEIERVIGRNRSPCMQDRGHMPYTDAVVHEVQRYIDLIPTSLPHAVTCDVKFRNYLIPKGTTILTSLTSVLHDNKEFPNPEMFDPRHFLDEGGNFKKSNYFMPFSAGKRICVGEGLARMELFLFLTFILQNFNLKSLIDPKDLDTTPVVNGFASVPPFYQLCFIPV
# Protocol: as §3
# SLCO1B1 = experiment: Induction assay, mRNA by real-time RT-PCR in LS180 cells: SLCO1B1; format: cell-based, human; details: four days, at higher concentrations
# Protocol: as §1, §2
# NR1I2 = experiment: Induction assay, mRNA by real-time RT-PCR in LS180 cells: NR1I2; format: cell-based, human; details: four days, at higher concentrations
# Protocol: as §1, §2
# [9] = Growth inhibition assay in MDCKII-BCRP cells; format: cell-based, canine; details: dog
# BCRP = target: T6, BCRP (Homo sapiens, UniProt Q9UNQ0); design: method as in PMID 20222053; details: MDCKII-BCRP cells; read-out: IC50 BCRP inhibition, control compound; cited from earlier work
# T6 construct: expressed in transfected cells; host or cells: MDCKII-BCRP (Madin-Darby canine kidney cells)
# T6 sequence (Q9UNQ0 whole entry): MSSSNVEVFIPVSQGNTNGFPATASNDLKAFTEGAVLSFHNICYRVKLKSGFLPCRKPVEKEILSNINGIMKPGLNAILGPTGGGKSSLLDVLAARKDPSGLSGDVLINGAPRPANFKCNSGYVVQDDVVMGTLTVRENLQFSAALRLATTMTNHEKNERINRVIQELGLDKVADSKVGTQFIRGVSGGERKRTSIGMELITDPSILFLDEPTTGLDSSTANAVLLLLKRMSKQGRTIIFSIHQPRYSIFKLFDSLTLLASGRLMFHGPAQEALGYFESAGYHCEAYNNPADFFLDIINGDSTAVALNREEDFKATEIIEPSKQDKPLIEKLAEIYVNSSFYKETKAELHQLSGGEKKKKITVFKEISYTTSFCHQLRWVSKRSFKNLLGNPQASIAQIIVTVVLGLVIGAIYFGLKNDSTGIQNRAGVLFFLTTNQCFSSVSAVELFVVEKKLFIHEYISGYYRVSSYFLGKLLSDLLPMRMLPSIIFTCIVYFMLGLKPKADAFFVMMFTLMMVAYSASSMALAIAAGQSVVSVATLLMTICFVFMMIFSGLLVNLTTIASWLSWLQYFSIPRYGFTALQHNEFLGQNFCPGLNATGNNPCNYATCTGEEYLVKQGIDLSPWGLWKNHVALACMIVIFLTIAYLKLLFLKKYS
# OATP1B3 [10] = target: T2, OATP1B3; design: method as in PMID 23219525; details: HEK-OATP1B3 cells; read-out: IC50 OATP1B3 inhibition, control compound; cited from earlier work
# OATP1B1 [11] = target: T3, OATP1B1; design: method as in PMID 23219525; details: HEK-OATP1B1 cells; read-out: IC50 OATP1B1 inhibition, control compound; cited from earlier work
structure (smiles),measurement,setting,value
CN1CCN(c2ccc3nc(-c4c(N)c5c(F)cccc5[nH]c4=O)[nH]c3c2)CC1 [Dovitinib],mRNA expression of SLCO2B1,SLCO2B1,reduced
same,CYP2D6 inhibition,CYP2D6,not inhibited at all
same,mRNA expression of UGT1A3,UGT1A3,reduced
same,"stock solution, highest possible solution",[1],10 mM
same,IC50,OATP1B3 [2],> 100 µM
same,mRNA expression of ABCC2,ABCC2,reduced
same,IC50,OATP1B1 [3],76.5 ± 28.9 µM
same,mRNA expression of ABCB1,ABCB1,reduced
same,mRNA expression of CYP1A2,"CYP1A2; 0.1-5 µM, four days",induced
same,induction of CYP1A2 (mRNA),CYP1A2; Figure 3,approximately 10 fold
same,IC20,LS180 cells,4.9 ± 2.5 µM
same,mRNA expression of CYP3A4,CYP3A4 [4],no influence
same,inhibition at 20 µM,CYP3A4 [5],~30%
same,P-gp protein expression (western blot),P-gp; at 0.1 and 0.5 µM,small increase in P-gp expression
same,P-gp protein expression (western blot),P-gp; at higher dovitinib concentrations,suppression of P-gp protein expression
same,IC50 at 48 h,[6],18.3 ± 4.1 µM
same,IC50,MDCKII,20 ± 2.9 µM
same,mRNA expression of UGT2B7,UGT2B7,reduced
same,mRNA expression of ABCC3,ABCC3,induced
same,mRNA expression of ABCG2,ABCG2,induced
same,EC50,AhR,0.609 ± 0.282 µM
same,mRNA expression of CYP2C19,CYP2C19 [7],no influence
same,mRNA expression of ABCC1,ABCC1,no influence
same,mRNA expression of CYP1A1,"CYP1A1; 0.1-5 µM, four days",induced
same,induction of CYP1A1 (mRNA),CYP1A1; Figure 3,approximately 10 fold
same,inhibition at 20 µM,"CYP2C19 [8]; human, recombinant CYP2C19, probe CEC, at 20 µM",~50%
same,mRNA expression of SLCO1B1,SLCO1B1,reduced
same,mRNA expression of NR1I2,NR1I2,reduced
same,IC50 at 48 h,[9],21.4 ± 3.6 µM
COc1ccc2c3c([nH]c2c1)[C@H](C=C(C)C)N1C(=O)[C@@H]2CCCN2C(=O)[C@@H]1C3 [Fumitremorgin C],IC50,BCRP,0.7 ± 0.3 µM
CO[C@H]1/C=C/O[C@@]2(C)Oc3c(C)c(O)c4c(O)c(c(/C=N/N5CCN(C)CC5)c(O)c4c3C2=O)NC(=O)/C(C)=C\C=C\[C@H](C)[C@H](O)[C@@H](C)[C@@H](O)[C@@H](C)[C@H](OC(C)=O)[C@@H]1C [Rifampicin],IC50,OATP1B3 [10],2.1 ± 1 µM
same,IC50,OATP1B1 [11],2.4 ± 0.9 µM
"COc1ccc2[nH]c([S+]([O-])Cc3ncc(C)c(OC)c3C)nc2c1 (stereo not drawn) [omeprazole, Omeprazole]",IC50,"CYP2C19 [8]; control compound, read-out: IC50 CYP2C19 inhibition",0.8 ± 0.2 µM
